Assay results published in US7772274B1, “Docetaxel formulations with lipoic acid” (Scidose, LLC, priority 2009, dated 2010).
Like-named read-outs stand apart in the source and are kept apart here.

Assay: Solubility of docetaxel in various solvents
Format: physicochemical
Settings: for solubility: read-out: Solubility of Docetaxel, Concentration
Procedure: In consideration of the severe side effects associated with the use of polysorbates, such as TWEEN 80®, as solubilizers of docetaxel, solubility studies were conducted to determine non-toxic solvents that can effectively dissolve docetaxel.
Solubility of docetaxel was assessed using several different solvents that are well-tolerated in subjects, as well as polysorbates for comparison.

CC(=O)O[C@@]12CO[C@@H]1C[C@H](O)[C@@]1(C)C(=O)[C@H](O)C3=C(C)[C@@H](OC(=O)[C@H](O)[C@@H](NC(=O)OC(C)(C)C)c4ccccc4)C[C@@](O)([C@@H](OC(=O)c4ccccc4)[C@H]21)C3(C)C [Docetaxel, (2R,3S)—N-carboxy-3-phenylisoserine, N-tert-butyl ester, 13-ester with 5β-20-epoxy-1,2α,4,7β,10β,13α-hexahydroxytax-11-en-9-one 4-acetate 2-benzoate, trihydrate]
solubility (oil or lipid, solvent LABROFAC™ (Capric triglyceride PEG 4 ester Macrogol 200)): 35 mg/mL | solubility (oil or lipid, solvent MAISINE™ 35-1 (Glycerol mono linoleate)): 10 mg/mL | solubility (oil or lipid, solvent PECEOL® (Glycerol mono Oleate 40)): 7 mg/mL | solubility (organic solvent or mixture, solvent 1-lactic acid): 6 mg/mL | solubility (organic solvent or mixture, solvent 2% Lutrol in PEG 400): 15 mg/mL | solubility (organic solvent or mixture, solvent 50% PEG 400/50% PG): 15 mg/mL | solubility (organic solvent or mixture, solvent Acetic acid): 60 mg/mL | solubility (organic solvent or mixture, solvent Benzyl alcohol): 90 mg/mL | solubility (organic solvent or mixture, solvent Benzyl benzoate): 13 mg/mL | solubility (organic solvent or mixture, solvent Ethanol): 120 mg/mL | solubility (organic solvent or mixture, solvent Glycerol): 1.65 mg/mL | solubility (organic solvent or mixture, solvent Glycofurol): 200 mg/mL | solubility (organic solvent or mixture, solvent N-Methyl 2-Pyrrolidone): 17.6 mg/mL | solubility (organic solvent or mixture, solvent PEG 400): 10 mg/mL | solubility (organic solvent or mixture, solvent Propylene Glycol): 10 mg/mL | solubility (organic solvent or mixture, solvent Span 80): 3.5 mg/mL | solubility (organic solvent or mixture, solvent TPGS 1000): 50 mg/mL | solubility (organic solvent or mixture, solvent TWEEN 20®): 90 mg/mL | solubility (organic solvent or mixture, solvent TWEEN 80®): 60 mg/mL | Solubility of Docetaxel, Concentration (solvent Glycofurol): most soluble
